Data on 7 compounds can be found in paper PMC4627656, “Combining Metabolite-Based Pharmacophores with Bayesian Machine Learning Models for Mycobacterium tuberculosis Drug Discovery” (PLoS ONE, 2015).

Data set [1] is described as follows: in vitro. The conditions noted are these: African green monkey.
The conditions of data set [2]: mouse, microsomes, pH 7.4. The method, then: The test agent was incubated in duplicate with mouse liver microsomes at 37°C. The reaction contained microsomal protein in 100 mM K3PO4, 2 mM NADPH, and 3 mM MgCl2 at pH 7.4. A control was run for each test agent omitting NADPH to detect NADPH-free degradation. At t = 0 and 60 min, an aliquot was removed from each experimental and control reaction and mixed with an equal volume of ice-cold Stop Solution (methanol containing propranolol as an internal standard). Stopped reactions were incubated at least ten min at -20°C, and an additional volume of water was added. The samples were centrifuged to remove precipitated protein, and the supernatants were analyzed by LC/MS/MS to quantitate the remaining parent. Data were reported as % remaining by dividing by the time zero concentration value.

For data set [3], the system named is Mtb H37Rv strain. Put plainly: Resazurin (Alamar Blue) MIC assay against replicating Mtb. Format: cell-based, Mycobacterium tuberculosis. The conditions noted are these: lowest concentration inhibiting ≥90% growth, initial hits, quinoxaline di-N-oxides, positive controls; for MIC: Mycobacterium tuberculosis, H37RV.
Data set [4] can be described thus: physchem. Type of data set: physicochemical. The conditions noted are these: 37 °C, pH 7.4, aqueous buffer, kinetic from dmso stock. The method, then:
Serial dilutions of the test agent were prepared in DMSO at 100x the final concentration. Test article solutions were diluted 100-fold into pH 7.4 phosphate-buffer saline (PBS) in a 96-well plate and mixed. After 2 h at 37°C, the presence of precipitate was detected by turbidity (absorbance at 540 nm). An absorbance value of greater than ‘mean + 3x standard deviation of the blank’ (after subtracting the background) was indicative of turbidity. For brightly colored compounds, a visual inspection of the plate was performed to verify the solubility limit determined by UV absorbance. The solubility limit was reported as the highest experimental concentration with no evidence of turbidity.

The nature of data set [5]: in vitro. The following applies: human, Caco-2.
A short description of data set [6]: Caco-2 cell permeability. The following applies: human.
Data set [7] deals with Mtb (H37Rv).
For data set [8], the system named is Mtb. Further details: method as in PMID 18502817. The conditions noted are these: cited from earlier work.
For data set [9], the system named is mammalian cell. The following applies: cited from earlier work.
The test system of data set [10] is clinical strain 692. Put plainly: AlamarBlue MIC (absorbance), strain panel: 692. The following applies: Mycobacterium tuberculosis, pan-susceptible. Format: cell-based. A general note: The colour change of resazurin is a common sign of viable cells or microbes.
Where [11] appears, read: in vitro cultured Mtb H37Rv, read-out: Mtb MIC (H37Rv).
Setting [12] is: 3.2 μg/mL (1.3X MIC), 6 h, vs DMSO.

≈ marks a conversion by molar mass, not a printed value. Like-named read-outs stand apart in the source and are kept apart here.

Broadly, the MIC is the smallest concentration in the dilution series that meets the test's criterion for growth inhibition. Broadly, the kinetic solubility is solubility judged after dilution from a stock solution rather than from solid. A word on the Papp A→B: it is the apparent permeability from the apical to the basolateral side of a cell layer. Broadly, the Papp B→A is the apparent permeability from the basolateral to the apical side of a cell layer. The term efflux ratio denotes a quotient of directional permeabilities that is used to spot active efflux. On to `Cc1c(C(=O)C2CC2)[n+]([O-])c2cc(Cl)c(Cl)cc2[n+]1[O-]` [SRI58], for which the CC50 at 72 h in data set [1] is > 40 µg/mL. Further, in data set [2], the “% Compound remaining after 1h in the absence of NADPH” value came to 110% and the “% Compound remaining after 1h in the presence of NADPH” value is 63.6%. Besides, the MIC in data set [3] (read-out: Mtb MIC (H37Rv), in vitro cultured Mtb H37Rv) is 1.2 µg/mL (≈ 3.83 µM). Moreover, the “Mtb MIC (H37Rv)” value in data set [3] (in vitro cultured Mtb H37Rv) worked out at 1.25 µg/mL. Further, the kinetic solubility at 2 h in data set [4] amounted to 125 µM (≈ 39.1 µg/mL). Further, in [5], the Papp A→B at 2 h, 10 μM came to 2.3 ×10⁻⁶ cm/s; the Papp B→A at 2 h, 10 μM was 0.57 ×10⁻⁶ cm/s; the efflux ratio at 2 h, 10 μM is 0.25.
Take `CCCCC(=O)c1c(C)[n+]([O-])c2cc(Cl)c(Cl)cc2[n+]1[O-]` [SRI54]: the efflux ratio at 2 h, 10 μM in [6] amounted to 0.15. This compound gave a CC50 at 72 h in [1] of 15 µg/mL (≈ 45.6 µM). In data set [2], the “% Compound remaining after 1h in the absence of NADPH” value came to 79.1% and the “% Compound remaining after 1h in the presence of NADPH” value is listed as 0%. Also, the MIC in data set [3] (setting [11]) came to 2.5 µg/mL (≈ 7.59 µM). In addition, the kinetic solubility at 2 h in data set [4] was found to be 15.6 µM (≈ 5.14 µg/mL). Moreover, in data set [5], the Papp A→B at 2 h, 10 μM is 0.66 ×10⁻⁶ cm/s and the basolateral-to-apical permeability (Papp B→A) at 2 h, 10 μM was determined as 0.1 ×10⁻⁶ cm/s. In data set [7] (setting [12]), the “Genes down-regulated at minimum twofold versus control” value was 184 genes and the “Genes up-regulated at least twofold versus control” value is 131 genes. Moreover, in data set [7] (3.2 μg/mL, 6 h), the “DNA repair genes down-regulated at least twofold” value is given as 2/59; the “DNA repair genes up-regulated at least twofold” value is reported as 12/59; the “Methylcitrate cycle genes (prpC, prpD, icl1) induced more than fourfold versus control” value is given as 3/13. For the same compound, the “Avg. fold induction over four replicates, hypothetical protein ORF01494” value in data set [7] (ORF01494, treated vs DMSO) is 11.22. In data set [7] (gene Rv0560c, treated vs DMSO), the “Avg. fold induction over four replicates, Rv0560c” value is recorded as 38.01. For the same compound, the “Avg. fold induction over four replicates, Rv1130” value in data set [7] (gene Rv1130, treated vs DMSO) was 8.92. For the same compound, in data set [7] (gene Rv3074, treated vs DMSO), the “Avg. fold induction over four replicates, Rv3074” value stood at 8.59. In [7] (gene gltA1 (Rv1131), treated vs DMSO), the “Avg. fold induction over four replicates, gltA1” value turned out to be 15.16. Moreover, the “Hierarchical clustering of transcriptional response” value in data set [7] (top 100 most up- and down-regulated genes vs deposited Mtb transcriptional data) was “clustered most closely to the fatty acid biosynthesis inhibitor CD117”.
In data set [1], `CC(C)=CCC/C(C)=C/CCC(=O)c1c(C)[n+]([O-])c2cc(Cl)c(Cl)cc2[n+]1[O-]` [SRI56] returned a CC50 at 72 h of 4.5 µg/mL (≈ 10.6 µM). In addition, the MIC in data set [3] (setting [11]) was found to be 2.5 µg/mL (≈ 5.91 µM).
As to `CC(=O)c1c(C)[n+]([O-])c2ccccc2[n+]1[O-]` [SRI1, 1-(3-methyl-1,4-dioxy-quinoxalin-2-yl)-ethanone], in data set [1], the CC50 at 72 h is > 40 µg/mL. Besides, in [8], the MIC previously identified is 3.13 µg/mL (≈ 14.3 µM). For the same compound, the MIC in [3] (setting [11]) is 2.5 µg/mL (≈ 11.5 µM). In data set [9], the “Mammalian cell cytotoxicity previously reported” value is listed as “no appreciable mammalian cell cytotoxicity”.
Turning to `Cc1c(C(=O)c2cccnc2)[n+]([O-])c2cc(Cl)c(Cl)cc2[n+]1[O-]` [SRI55], the CC50 at 72 h in data set [1] is > 40 µg/mL. Besides, the MIC in [3] (setting [11]) was 2.5 µg/mL (≈ 7.14 µM).
For `CC(=O)c1c(C)[n+]([O-])c2ccc(Cl)cc2[n+]1[O-]` [SRI4], in that order: > 40 µg/mL and 5 µg/mL (≈ 19.8 µM).
Turning to `CCCCC(=O)c1c(C)[n+]([O-])c2ccc([N+](=O)[O-])cc2[n+]1[O-]` [SRI50], the CC50 at 72 h in data set [1] came out at 3.4 µg/mL (≈ 11.1 µM). In data set [2], the “% Compound remaining after 1h in the absence of NADPH” value came out at 77.5%. In addition, the “% Compound remaining after 1h in the presence of NADPH” value in [2] was 0.06%. The MIC in data set [10] was found to be 0.16 µg/mL (≈ 0.524 µM); in data set [3] (setting [11]), 0.32 µg/mL (≈ 1.05 µM). This compound also registered a kinetic solubility at 2 h in [4] of 125 µM (≈ 38.2 µg/mL).
